Reference: US8754079B2, “Cycloalkyl containing thienopyrimidines for pharmaceutical compositions” (Boehringer Ingelheim International GmbH, priority 2010, dated 2014)

Biological target: T1, MNK2 (Homo sapiens, UniProt Q9HBH9)
T1 construct: the open reading frames of human Mnk1 and Mnk2a were amplified from cDNA; made in house; host or cells: E. coli BL21
Assay: Mnk2a in vitro kinase assay (indirect fluorescence polarization)
Type: biochemical
Settings: pre-activated GST-Mnk2a 2.5 nM, 20 μM ATP, 30 μM substrate peptide
Procedure, shortened: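 Human GST-Mnk2a was expressed in E. coli and activated in vitro with 150 nM pre-activated ERK2 and 50 μM ATP in HEPES pH 7.4/MgCl2 buffer (45 min, 30 °C). Activity on an eIF4E Ser209-derived 12mer peptide was read by competitive fluorescence polarization with a phospho-specific antibody.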

T1 sequence (Q9HBH9 whole entry): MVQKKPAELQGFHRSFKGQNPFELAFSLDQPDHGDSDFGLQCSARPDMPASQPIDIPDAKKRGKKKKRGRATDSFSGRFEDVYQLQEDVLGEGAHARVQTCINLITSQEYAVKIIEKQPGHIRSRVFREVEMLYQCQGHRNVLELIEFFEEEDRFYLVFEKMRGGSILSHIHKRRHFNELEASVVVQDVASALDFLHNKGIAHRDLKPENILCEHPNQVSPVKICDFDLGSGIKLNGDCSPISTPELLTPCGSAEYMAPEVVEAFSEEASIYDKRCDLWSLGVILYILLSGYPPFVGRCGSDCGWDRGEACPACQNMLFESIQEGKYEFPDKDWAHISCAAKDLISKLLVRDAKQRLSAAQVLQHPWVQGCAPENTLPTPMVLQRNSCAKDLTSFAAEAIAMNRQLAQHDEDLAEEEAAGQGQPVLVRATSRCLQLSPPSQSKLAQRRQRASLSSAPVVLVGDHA

| SMILES | IC50 [nM] |
| --- | --- |
| Cc1c(C(N)=O)sc2ncnc(Nc3ccc(F)cc3O[C@H]3CC[C@H](NS(C)(=O)=O)CC3)c12 [Example 3, 4-[4-Fluoro-2-(trans-4-methanesulfonylamino-cyclohexyloxy)-phenylamino]-5-methyl-thieno[2,3-d]pyrimidine-6-carboxylic acid amide] | 10 |
| Cc1c(C(N)=O)sc2ncnc(Nc3ccc(F)cc3O[C@H]3CC[C@H](N(C)S(C)(=O)=O)CC3)c12 [Example 4, 4-(4-Fluoro-2-(trans-4-(N-methylmethylsulfonamido)cyclohexyloxy)phenylamino)-5-methylthieno[2,3-d]pyrimidine-6-carboxamide] | 23 |
| CC(=O)N[C@H]1CC[C@H](Oc2cc(F)ccc2Nc2ncnc3sc(C(N)=O)c(C)c23)CC1 [Example 5, 4-(2-(trans-4-acetamidocyclohexyloxy)-4-fluorophenylamino)-5-methylthieno[2,3-d]pyrimidine-6-carboxamide] | 3 |
| CC(=O)N[C@H]1CC[C@H](Oc2cc(F)ccc2Nc2ncnc3sc(C(=O)NCCCN(C)C)c(C)c23)CC1 [Example 6] | 7 |
| CC(=O)N(C)[C@H]1CC[C@H](Oc2cc(F)ccc2Nc2ncnc3sc(C(N)=O)c(C)c23)CC1 [Example 7] | 7 |
| CC(=O)N(C)[C@H]1CC[C@H](Oc2cc(F)ccc2Nc2ncnc3sc(C(=O)NCCCN(C)C)c(C)c23)CC1 [Example 8, N-(3-(dimethylamino)propyl)-4-(4-fluoro-2-(trans-4-(N-methylacetamido)cyclohexyloxy)phenylamino)-5-methylthieno[2,3-d]pyrimidine-6-carboxamide] | 12 |
| Cc1c(C(N)=O)sc2ncnc(Nc3ccc(F)cc3O[C@H]3CC[C@@H](N(C)S(C)(=O)=O)CC3)c12 [Example 9, 4-(4-Fluoro-2-(cis-4-(N-methylmethylsulfonamido)cyclohexyloxy)phenylamino)-5-methylthieno[2,3-d]pyrimidine-6-carboxamide] | 5900 |
| CC(=O)N(C)[C@H]1CC[C@@H](Oc2cc(F)ccc2Nc2ncnc3sc(C(N)=O)c(C)c23)CC1 [Example 10] | 2500 |
| COC(=O)N(C)[C@H]1CC[C@H](Oc2cc(F)ccc2Nc2ncnc3sc(C(N)=O)c(C)c23)CC1 [Example 11, Methyl trans-4-(2-(6-carbamoyl-5-methylthieno[2,3-d]pyrimidin-4-ylamino)-5-fluorophenoxy)cyclohexyl(methyl)carbamate] | 7 |
| CN[C@H]1CC[C@H](Oc2cc(F)ccc2Nc2ncnc3sc(C(N)=O)c(C)c23)CC1 [Example 12, 4-(4-Fluoro-2-(trans-4-(methylamino)cyclohexyloxy)phenylamino)-5-methylthieno[2,3-d]pyrimidine-6-carboxamide] | 7 |
| Cc1c(C(N)=O)sc2ncnc(Nc3ccc(F)cc3O[C@H]3CC[C@H](NC4CCN(C)CC4)CC3)c12 [Example 16, 4-(4-Fluoro-2-(trans-4-(1-methylpiperidin-4-ylamino)cyclohexyloxy)phenylamino)-5-methylthieno[2,3-d]pyrimidine-6-carboxamide] | 13 |
| Cc1c(C(N)=O)sc2ncnc(Nc3ccc(F)cc3OC3CCC4(CC3)OCCO4)c12 [Example 19, 4-(2-(1,4-Dioxaspiro[4.5]decan-8-yloxy)-4-fluorophenylamino)-5-methylthieno[2,3-d]pyrimidine-6-carboxamide] | 31 |
| COC(=O)c1sc2ncnc(Nc3ccc(F)cc3OC3CCC(=O)CC3)c2c1C [Example 20, Methyl 4-(4-fluoro-2-(4-oxocyclohexyloxy)phenylamino)-5-methylthieno[2,3-d]pyrimidine-6-carboxylate] | 360 |
| Cc1c(C(N)=O)sc2ncnc(Nc3ccc(F)cc3OC3CCC(=O)CC3)c12 [Example 21, 4-(4-Fluoro-2-(4-oxocyclohexyloxy)phenylamino)-5-methylthieno[2,3-d]pyrimidine-6-carboxamide] | 31 |
| COCCN(C)[C@H]1CC[C@H](Oc2cc(F)ccc2Nc2ncnc3sc(C(N)=O)c(C)c23)CC1 [Example 22, 4-(4-Fluoro-2-(trans-4-((2-methoxyethyl)(methyl)amino)cyclohexyloxy)phenylamino)-5-methylthieno[2,3-d]pyrimidine-6-carboxamide] | 65 |
| COCCN(C)[C@H]1CC[C@@H](Oc2cc(F)ccc2Nc2ncnc3sc(C(N)=O)c(C)c23)CC1 [Example 23, 4-(4-Fluoro-2-(cis-4-((2-methoxyethyl)(methyl)amino)cyclohexyloxy)phenylamino)-5-methylthieno[2,3-d]pyrimidine-6-carboxamide] | 920 |
| COCCN[C@H]1CC[C@H](Oc2cc(F)ccc2Nc2ncnc3sc(C(N)=O)c(C)c23)CC1 [Example 24, 4-(4-Fluoro-2-(trans-4-(2-methoxyethylamino)cyclohexyloxy)phenylamino)-5-methylthieno[2,3-d]pyrimidine-6-amide] | 14 |
| COCCN[C@H]1CC[C@@H](Oc2cc(F)ccc2Nc2ncnc3sc(C(N)=O)c(C)c23)CC1 [Example 25, 4-(4-Fluoro-2-(cis-4-(2-methoxyethylamino)cyclohexyloxy)phenylamino)-5-methylthieno[2,3-d]pyrimidine-6-carboxamide] | 300 |
| Cc1c(C(N)=O)sc2ncnc(Nc3ccc(F)cc3O[C@H]3CC[C@H](N4CCOCC4)CC3)c12 [Example 26, 4-(4-Fluoro-2-(trans-4-morpholinocyclohexyloxy)phenylamino)-5-methylthieno[2,3-d]pyrimidine-6-carboxamide] | 82 |
| Cc1c(C(N)=O)sc2ncnc(Nc3ccc(F)cc3O[C@H]3CC[C@@H](N4CCOCC4)CC3)c12 [Example 27, 4-(4-Fluoro-2-(cis-4-morpholinocyclohexyloxy)phenylamino)-5-methylthieno[2,3-d]pyrimidine-6-carboxamide] | 9700 |
| COC(=O)c1sc2ncnc(Nc3ccc(F)cc3O[C@@H]3C[C@H](O)C[C@H](O)C3)c2c1C [Example 28.1] | 158 |
| CO[C@@H]1C[C@H](OC)C[C@H](Oc2cc(F)ccc2Nc2ncnc3sc(C(N)=O)c(C)c23)C1 [Example 29] | 90 |
| CC(=O)N[C@H]1C[C@H](Oc2cc(F)ccc2Nc2ncnc3sc(C(=O)O)c(C)c23)C1 [Example 35.2, 4-[2-(trans-3-Acetylamino-cyclobutoxy)-4-fluoro-phenylamino]-5-methyl-thieno[2,3-d]pyrimidine-6-carboxylic acid] | 23 |
| CC(=O)N[C@H]1C[C@H](Oc2cc(F)ccc2Nc2ncnc3sc(C(N)=O)c(C)c23)C1 [Example 35.3, 4-[2-(trans-3-Acetylamino-cyclobutoxy)-4-fluoro-phenylamino]-5-methyl-thieno[2,3-d]pyrimidine-6-carboxylic acid amide] | 23 |

Second part, the compound after the results:

| IC50 [nM] | SMILES |
| --- | --- |
| 23 | Cc1c(C(=O)O)sc2ncnc(Nc3ccc(F)cc3O[C@H]3CCCC[C@H]3O)c12 (single isomer, unassigned) [Example 262, 4-[4-fluoro-2-(cis-2-hydroxy-cyclohexyloxy)-phenylamino]-5-methyl-thieno[2,3-d]pyrimidine-6-carboxylic acid] |
| 54 | Cc1c(C(=O)NC2CCN(C)CC2)sc2ncnc(Nc3ccc(F)cc3OC3CCCCC3O)c12 (single isomer, unassigned) [Example 265] |
| 37 | COC(=O)c1sc2ncnc(Nc3ccc(F)cc3OC3CCC(C)(C)CC3)c2c1C [Example 31.1] |
| 36 | Cc1c(C(=O)NCCCN(C)C)sc2ncnc(Nc3ccc(F)cc3OC3CCC(C)(C)CC3)c12 [Example 32, 4-[2-(4,4-Dimethyl-cyclohexyloxy)-4-fluoro-phenylamino]-5-methyl-thieno[2,3-d]pyrimidine-6-carboxylic acid (3-dimethylamino-propyl)-amide] |
| 7 | Cc1c(C(N)=O)sc2ncnc(Nc3ccc(F)cc3OC3CCC(F)(F)CC3)c12 [Example 33, 4-[2-(4,4-Difluoro-cyclohexyloxy)-4-fluoro-phenylamino]-5-methyl-thieno[2,3-d]pyrimidine-6-carboxylic acid amide] |
| 28 | Cc1c(C(=O)NCCCN(C)C)sc2ncnc(Nc3ccc(F)cc3OC3CCC(F)(F)CC3)c12 [Example 34, 4-[2-(4,4-Difluoro-cyclohexyloxy)-4-fluoro-phenylamino]-5-methyl-thieno[2,3-d]pyrimidine-6-carboxylic acid (3-dimethylamino-propyl)-amide] |
| 66 | CC(=O)N[C@H]1C[C@H](Oc2cc(F)ccc2Nc2ncnc3sc(C(=O)NCCCN(C)C)c(C)c23)C1 [Example 36] |
| 69 | CCNC(=O)c1sc2ncnc(Nc3ccc(F)cc3O[C@H]3C[C@H](NC(C)=O)C3)c2c1C [Example 37] |
| 70 | CONC(=O)c1sc2ncnc(Nc3ccc(F)cc3O[C@H]3C[C@H](NC(C)=O)C3)c2c1C [Example 38] |
| 61 | CC(=O)N[C@H]1C[C@H](Oc2cc(F)ccc2Nc2ncnc3sc(C(=O)NCCCN4CCCC4)c(C)c23)C1 [Example 39] |
| 40 | CC(=O)N[C@H]1C[C@H](Oc2cc(F)ccc2Nc2ncnc3sc(C(=O)NC4CCN(C)CC4)c(C)c23)C1 [Example 40] |
| 152 | CC(=O)N[C@H]1C[C@H](Oc2cc(F)ccc2Nc2ncnc3sc(C(=O)NCCO)c(C)c23)C1 [Example 41] |
| 140 | CO[C@H]1CCCC[C@@H]1Oc1cc(F)ccc1Nc1ncnc2sc(C(N)=O)c(C)c12 [Example 42, 4-[4-Fluoro-2-((1S,2S)-2-methoxy-cyclohexyloxy)-phenylamino]-5-methyl-thieno[2,3-d]pyrimidine-6-carboxylic acid amide] |
| 360 | CO[C@H]1CCCC[C@@H]1Oc1cc(F)ccc1Nc1ncnc2sc(C(=O)NCCCN(C)C)c(C)c12 [Example 43, 4-[4-Fluoro-2-((1S,2S)-2-methoxy-cyclohexyloxy)-phenylamino]-5-methyl-thieno[2,3-d]pyrimidine-6-carboxylic acid (3-dimethylamino-propyl)-amide] |
